Results on three compounds are retold here after article PMC6152156 (Molecules : A Journal of Synthetic Chemistry and Natural …, 2017).

In experiment [1] the target is T1, AChE (Rattus norvegicus, UniProt P37136).
T1 construct: AChE was derived from the SD rat brains by homogenizing the brain with 20-fold saline solution; from tissue; host or cells: SD rat brain homogenate (supernatant after 800 x g)
Briefly: AChE kinetic study (Lineweaver-Burk and Dixon plots). It is filed as biochemical. The following applies: for Ki: Dixon plot, inhibitor 0.1, 0.3, 1 μM, substrate 1.25-20 mM, n = 3; for type of inhibition of AChE: Lineweaver-Burk plot. On the procedure: (§1) To have an insight into how structure modification affected the inhibitory activities, molecular docking and kinetics studies were performed for DL0410, compounds 6-1 and 7-6. After the docking parameters were set, the crystal poses of donepezil and N-((1-benzylpiperidin-3-yl)methyl)-N-(2-methoxyethyl) naphthalene-2-sulfonamide were first re-docked into the binding site pocket of AChE and BuChE, respectively. Donepezil is a mixed-type inhibitor of AChE used in the palliative treatment of AD [25]. N-((1-benzylpiperidin-3-yl)methyl)-N-(2-methoxyethyl) naphthalene-2-sulfonamide is a potent, selective, and reversible human BuChE inhibitor, which can improve memory, cognitive functions, and learning abilities. The root mean square deviation (RMSD) values between the docking and initial poses were 0.872 and 1.253, respectively, which implied that the docking models built by CDOCKER could reproduce the crystal binding model and were suitable for the AChE and BuChE system. DL0410 and two highly inhibitory compounds (compounds 6-1 and 7-6) were docked to the active pockets of AChE and BuChE. For AChE, these three compounds could dock to TRP86 of CAS via π-Alkyl interaction or electrostatic attraction, near the bottom of the active site gorge, and TRP286 of PAS via π-π stacking interaction, near its entrance (Figure 4). The value of –CDOCKER INTERACTION ENERGY was followed by compound 6-1 > compound 7-6 > DL0410. The dibenzofuran of compound 6-1 formed stronger π-π stacking interaction with TYR341 and TRP286, and the carbonyl formed hydrogen bond with TYR72. In addition, hydrogen bond interaction of compound 7-6 made it high inhibition for AChE. […] There existed more hydrogen bonds for compound 7-6, and a highly electronegative fluorine atom caused its strong interaction with GLY116. Therefore, the fluorine atom substitution and the structure of dibenzofuran made compounds 6-1 and 7-6 different from DL0410. Compound 7-6 formed more hydrogen bonds with AChE and BuChE. The structure of dibenzofuran caused the extension direction of compound 6-1 to change, which was more conducive to forming electrostatic attractive interactions. In silico results were consistent with the kinetics studies of AChE and BuChE. […] The inhibition kinetic data were analyzed by Lineweaver-Burk and Dixon plots. The Lineweaver-Burk plot provides a useful means of distinguishing among competitive inhibition, non-competitive inhibition, and mixed inhibition, whereas the merit of the Dixon plot is that one can expediently determine Ki from the kinetic data. […] The results of the kinetics studies also validated that the three compounds were, indeed, capable of binding to CAS and PAS of AChE/BuChE. The PAS site could […] their catalytic efficiency, which led to high inhibitory effects.
(§2) Figure 6 The Lineweaver-Burk plots of DL0410, compound 6-1 and compound 7-6 on AChE inhibitory activity (A–C). The Lineweaver-Burk plots of DL0410, compound 6-1 and compound 7-6 on BuChE inhibitory activity (D–F). Kinetic analysis of AChE and BuChE was performed by using three effective concentrations of DL0410, compound 6-1 and compound 7-6 (0.1, 0.3, 1 μM for AChE, and 0.3, 1, 3 μM for BuChE) with the incubation of five different substrate concentrations (1.25, 2.5, 5, 10, 20 mM for AChE, and 2, 4, 8, 16, 32 mM for BuChE). […] (n = 3; a = mM^−1; b = min/ΔA).
(§3) Figure 7 Ki values were determined by Dixon plots. […] Figure D–F presented the Dixon plots of DL0410, compound 6-1 and compound 7-6 on BuChE inhibitory activity, respectively. […] (n = 3; b = min/ΔA).
(§4) It is important to determinate the type of inhibition in an effort to understand the mechanism of inhibition and the binding sites of the inhibitor sites. […]

Experiment [2] has as its target T2, BuChE (Homo sapiens, UniProt P06276).
T2 construct: BuChE was obtained from human plasma (purchased from Beijing Red Cross Blood Center China); tissue Beijing Red Cross Blood Center China; host or cells: human plasma, diluted 200-fold with 0.05 M PBS
Briefly: BuChE kinetic study (Lineweaver-Burk and Dixon plots). The experiment is classed as biochemical. Conditions: for Ki: Dixon plot, inhibitor 0.3, 1, 3 μM, five substrate concentrations, n = 3; for type of inhibition of BuChE: Lineweaver-Burk plot. As for the experimental part:
as §1, §2, §3, §4

Experiment [3] addresses T2, BuChE. Briefly: In vitro BuChE inhibitory assay (Ellman-type, human plasma). The experiment is classed as biochemical. The following applies: BuChE from human plasma; BuSCh substrate; 60 min, 37 °C; read-out: IC50(μM) BuChE. As for the experimental part: BuChE was obtained from human plasma (purchased from Beijing Red Cross Blood Center China). Before utilization, human plasma was diluted 200-fold with 0.05 M PBS. Five serial dilutions of samples are determined to obtain BuChE inhibitory activity. The BuChE reaction system is similar to the assay above, including 10 μL samples, 40 μL diluted plasma sample, 70 μL 7.5 mM S-butyrylthiocholine (BuSCh), and 80 μL 0.25 mg/mL DTNB. After incubation at 37 °C for 60 min, the absorbance intensity of the system was measured at wavelength 412 nm.

In experiment [4] the target is T1, AChE. Briefly: In vitro AChE inhibitory assay (Ellman's method). The experiment is classed as biochemical. The following applies: AChE from SD rat brain homogenate; ASCh substrate; 60 min, 37 °C; read-out: IC50(μM) AChE. As for the experimental part:
The AChE inhibitory activity of DL0410 derivatives was assessed by determining the hydrolysis product of Acetylthiocholine iodide (ASCh) using the Ellman’s method. 5,5′-Dithiobis (2-nitrobenzoic acid) (DTNB), and the substrate ASCh were purchased from Sigma Aldrich. AChE was derived from the SD rat brains by homogenizing the brain with 20-fold saline solution, and then centrifuged at 800× g for 20 min at 4 °C. To acquire the inhibition of AChE activity, five serial dilutions of samples were measured. A Spectra Max M5 microplate reader (Molecular Devices, Sunnyvale, CA, USA) was utilized for the assay for AChE reaction system with 96-well plates in 0.05 M phosphate-buffered solution (PBS). The reaction system includes 10 μL sample, 20 μL AChE solution, 60 μL 3.75 mM ASCh, and 80 μL 0.25 mg/mL DTNB. It took 60 min at 37 °C for incubation, and the absorbance intensity of AChE reaction system was quantified at 412 nm.

The next experiment relates to Aβ-treated mice. Set-up: method as in PMID 27498773. Conditions: Aβ-treated mice model; cited from earlier work.
In another experiment the test system is APP/PS1 transgenic mice. The arrangement: method as in PMID 26476132. The following applies: cited from earlier work.
The subject of a further experiment is APPsw-SY5Y cells. The following applies: Akt/JNK signaling pathway; cited from earlier work.

Usually Ki stands for a dissociation constant, usually derived from enzyme kinetics or from competition with a known ligand. By IC50 is commonly meant the point on the concentration scale where inhibition reaches its midpoint.

T2 sequence (P06276 29-602): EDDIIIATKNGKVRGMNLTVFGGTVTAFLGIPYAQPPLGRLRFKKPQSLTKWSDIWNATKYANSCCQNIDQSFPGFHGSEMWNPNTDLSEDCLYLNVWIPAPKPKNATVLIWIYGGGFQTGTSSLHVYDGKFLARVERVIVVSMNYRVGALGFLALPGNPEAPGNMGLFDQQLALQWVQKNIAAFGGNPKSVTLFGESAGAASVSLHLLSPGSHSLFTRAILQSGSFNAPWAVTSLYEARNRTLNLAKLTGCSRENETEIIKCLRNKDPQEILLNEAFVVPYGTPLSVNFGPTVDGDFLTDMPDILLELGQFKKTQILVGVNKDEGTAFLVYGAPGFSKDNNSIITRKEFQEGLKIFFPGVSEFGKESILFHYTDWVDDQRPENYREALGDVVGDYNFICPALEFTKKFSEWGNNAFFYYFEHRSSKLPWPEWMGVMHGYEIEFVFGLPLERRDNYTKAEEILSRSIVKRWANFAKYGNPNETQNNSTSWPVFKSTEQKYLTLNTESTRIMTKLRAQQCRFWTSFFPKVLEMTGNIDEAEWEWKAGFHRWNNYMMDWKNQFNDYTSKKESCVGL
T1 sequence (P37136 32-614): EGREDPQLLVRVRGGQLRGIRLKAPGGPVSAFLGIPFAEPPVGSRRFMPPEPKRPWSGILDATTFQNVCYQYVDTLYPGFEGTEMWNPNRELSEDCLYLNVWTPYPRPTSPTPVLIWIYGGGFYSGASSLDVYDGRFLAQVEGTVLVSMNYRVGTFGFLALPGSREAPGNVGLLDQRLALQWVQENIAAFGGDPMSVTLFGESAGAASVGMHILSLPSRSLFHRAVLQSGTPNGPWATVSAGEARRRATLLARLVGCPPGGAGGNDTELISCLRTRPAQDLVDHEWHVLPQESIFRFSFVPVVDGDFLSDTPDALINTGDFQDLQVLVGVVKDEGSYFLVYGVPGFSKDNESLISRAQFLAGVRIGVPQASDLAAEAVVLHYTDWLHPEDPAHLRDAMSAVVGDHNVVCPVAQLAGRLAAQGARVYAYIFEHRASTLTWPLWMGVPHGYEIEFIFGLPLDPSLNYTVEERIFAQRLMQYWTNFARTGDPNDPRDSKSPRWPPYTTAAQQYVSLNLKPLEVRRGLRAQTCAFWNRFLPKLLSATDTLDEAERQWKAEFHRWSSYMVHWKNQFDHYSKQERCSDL

For the compound `O=C(CCN1CCCCC1)c1ccc2oc3ccc(C(=O)CCN4CCCCC4)cc3c2c1` [Compound 6-1], on AChE [1], the affinity corresponds to a Ki of 420 ± 40 nM and the “type of inhibition of AChE” value is reported as “mixed-type”. Further, at BuChE [2], the affinity corresponds to a Ki of 740 ± 160 nM and the “type of inhibition of BuChE” value was “mixed-type”. Moreover, the IC50 on BuChE [3] worked out at 0.61 µM. The half-maximal inhibitory concentration (IC50) on AChE [4] is 0.06 µM.

With `O=C(CCN1CCCCC1)c1ccc(-c2ccc(C(=O)CCN3CCCCC3)cc2F)cc1` [Compound 7-6], the inhibition constant (Ki) at AChE [1] was 550 ± 200 nM; at BuChE [2], 1630 ± 180 nM. Moreover, at AChE [1], the “type of inhibition of AChE” value is reported as “mixed-type”. Besides, the “type of inhibition of BuChE” value at BuChE [2] is given as “mixed-type”. Also, the values for the half-inhibitory concentration (IC50) on BuChE [3] and at AChE [4] were 0.44 µM and 0.03 µM, respectively.

`O=C(CCN1CCCCC1)c1ccc(-c2ccc(C(=O)CCN3CCCCC3)cc2)cc1` [Compound 1-1]: the “Aβ deposits in cerebral cortices” value in the experiment on Aβ-treated mice is “reduced Aβ deposits in cerebral cortices”. Also, at AChE [1], the affinity corresponds to a Ki of 1650 ± 140 nM and the “type of inhibition of AChE” value was “mixed-type”. In addition, the “learning and memory dysfunction” value with APP/PS1 transgenic mice was “improved learning and memory dysfunction”. In addition, at BuChE [2], affinity was put at a Ki of 1810 ± 80 nM and the “type of inhibition of BuChE” value is “mixed-type”. Further, the neuronal protection result with APPsw-SY5Y cells was “exerted neuronal protection”.
